US6440980B1, “Synergistic inhibition of viral replication by long-chain hydrocarbons and nucleoside analogs” (Avanir Pharmaceuticals, priority 1996, dated 2002)
Where two headings read alike, the source gives them in different places.

Assays:
all cell lines tested = experiment: Cytotoxicity in mammalian cell cultures; settings: surfactant suspensions
Description: Three assays were used to quantitate the effects of aliphatic alcohols on cell survival and proliferation: 1) counting cells with a hemocytometer and determining the number of cells that exclude trypan blue; 2) measuring the incorporation of ^3H-thymidine into cellular DNA by adding ^3H-thymidine (from New England Nuclear) to the culture medium, lysing the cells with water and harvesting the DNA onto filter paper; and 3) measuring total cellular protein using a sulforhodamine assay adapted for use in 96-well microtiter plates (Skehan et al., J. Natl. Cancer Inst. […] All of these methods are well known cell viability and cytotoxicity assays.

EBV = experiment: Systemic treatment of EBV infection, infectious mononucleosis (Example 14); assay type: in vivo, human; settings: 10 mM n-hexacosanol suspension injected
Protocol: Ten young adults (age 14-19 yr) diagnosed with infectious mononucleosis (sore throat, fever, malaise, generalized lymphadenopathy, atypical mononucleosis T-lymphocytes in peripheral blood, a total white cell count of 12,000-18,000 in the blood) are treated systemically with a sterile aqueous suspension of a nonionic detergent surfactant containing 10 mM n-hexacosanol, prepared essentially as in Example 1. The suspension is injected (intramuscular or intravenous) in dosages of 0.1 mg/kg to 0.02 gm/kg of the aliphatic alcohol administered by a physician under clinical conditions. The symptoms of the individuals are then monitored daily for one week and weekly for three months for indications of infectious mononucleosis. All of the individuals test EBV-positive at the end of the study period as determined by detection of anti-EBV antibodies in their serum using standard immunoassays.

HSV-2 [1] = experiment: Inhibition of HSV-2 plaque formation in Vero cells; settings: for EC50: Human alphaherpesvirus 2, Vero
HSV-2 [2] = experiment: Topical treatment of HSV-2 in guinea pig model, number of vesicles (Example 9); assay type: in vivo, hairless guinea pigs; settings: mean; for Number of Vesicles Day 2: 48 hr post-inoculation; for Number of Vesicles Day 3: 72 hr post-inoculation; for Number of Vesicles Day 4: 96 hr post-inoculation
[3] = male, hairless, guinea pig, in vivo, 2 day
Vero cells [4] = experiment: Cytotoxicity to Vero cells (monolayer integrity, trypan blue exclusion)
HSV-2 [5] = experiment: Cutaneous HSV-2 model in hairless guinea pigs, combination cream (Example 15); assay type: in vivo; settings: 96 hours post-HSV-2-inoculation; cream two times daily; untreated mean 27 vesicles
HSV-1 [6] = experiment: HSV-1 PFU production in Vero cell cultures; assay type: cell-based, HSV-1 (MacIntyre strain)
[7] = test system: Varicella Zoster Virus (VZV); experiment: VZV infectious center assay in MRC-5 cells; assay type: cell-based, human varicella zoster virus (Ellen strain); settings: for EC50: Human alphaherpesvirus 3, MRC5, read-out: ACV Efficacy EC50 (μM), VZV; for EC90: Human alphaherpesvirus 3, MRC5, read-out: ACV Efficacy EC90 (μM), VZV
Cytomegalovirus (CMV) = experiment: CMV infectious center assay in MRC-5 cells; assay type: cell-based, human cytomegalovirus (Towne strain); settings: for EC50: Human betaherpesvirus 5, MRC5, read-out: ACV Efficacy EC50 (μM), CMV; for EC90: Human betaherpesvirus 5, MRC5, read-out: ACV Efficacy EC90 (μM), CMV
vaccinia virus = experiment: microbe, parasite or virus in culture; assay type: cell-based, vaccinia virus (WR strain); settings: with or without n-docosanol
Vero cells [8] = test system: Vero cells
[9] = cited from earlier work
HSV-2 [10] = experiment: Transmucosal suppository treatment of HSV-2 infection (Example 13); assay type: in vivo, human; settings: 8 mM brassidyl alcohol suppositories
Protocol: Suppositories containing 8 mM brassidyl alcohol in a nonionic detergent suspension, prepared essentially as in Examples 1 and 5, are formulated by adding anhydrous dextrose (300-400 mg/suppository), vegetable starch (300-400 mg/suppository) and magnesium stearate (5-10 mg/suppository) to produce a mixture that is compressed into suppositories (1-10 g per suppository) for vaginal insertion.
Fifteen HSV-2 infected women with past histories of vaginal and/or perivaginal herpes lesions are provided with the suppositories and instructed to use one to four suppositories per day when herpes lesions or discomfort associated with herpes lesions are detected. The women are instructed to record their observations about the duration of the active infection, the severity of the lesions (erythema, papule, vesicle, edema or scab phases), the relative numbers of lesions detected to past occurrences of active infection, and the subjective degrees of pain or discomfort associated with the active infection episode. The women are instructed to use the suppositories as soon as active infection or symptoms of active infection are detected. The women have a past mean of 12 days duration for lesions that develop into vesicles if untreated.

HSV-1 [11] = experiment: Inhibition of HSV-1 plaque formation in Vero cells (brassidyl alcohol, TETRONIC-908 suspension); settings: Human alphaherpesvirus 1, Vero, read-out: Percent Inhibition of Plaque Formation

CCCCCCCCCCCCCCCCCCCCCCCCCCO [n-hexacosanol]
cytotoxicity of the suspensions (in words) (all cell lines tested): same minimal level of cytotoxicity | time to decrease in atypical mononucleosis T-lymphocytes in peripheral blood (EBV): four | EC50 (HSV-2 [1]; read-out: 50% Inhibition Concentration (mM)): 8.4 mM

CCCCCCCCCCCCCCCCCC(=O)O [stearic acid]
Number of Vesicles Day 2 (HSV-2 [2]; 10% w/w cream topically 3X/day from 24 hr post-inoculation): 49 | Number of Vesicles Day 3 (HSV-2 [2]; 10% w/w cream topically 3X/day): 17 | Number of Vesicles Day 4 (HSV-2 [2]; 10% w/w cream topically 3X/day): 11 | Number of Vesicles Day 2 (HSV-2 [2]; 10% w/w cream topically 5X/day): 49 | Number of Vesicles Day 3 (HSV-2 [2]; 10% w/w cream topically 5X/day): 13 | Number of Vesicles Day 4 (HSV-2 [2]; 10% w/w cream topically 5X/day): 5 | Irritation Score Day 2 [3]: 0 | inhibition of HSV-2 plaque formation relative to infected control cell cultures (HSV-2 [1]; 11 μM and 22 μM in TETRONIC 908, 3.5 μM in ethanol): less than 10% | cytotoxicity by microscopic examination (Vero cells [4]; 11 μM and 22 μM suspensions in TETRONIC 908 and 3.5 μM solution in ethanol): No apparent toxicity | cytotoxicity by microscopic examination (Vero cells [4]; 44 μM TETRONIC 908 suspension and 35 μM ethanol solution): Moderate toxicity | cytotoxicity by microscopic examination (Vero cells [4]; suspensions and solutions of 88 μM to 350 μM): toxic

Nc1nc2c(ncn2COCCO)c(=O)[nH]1 [ACV, 9-(2-hydroxy)-ethoxymethyl-guanine]
reduction of mean vesicle numbers (HSV-2 [5]): 50% | lowering of the ACV EC90 (HSV-1 [6]; 3.3 mM n-docosanol): 17 fold | reduction of the ACV EC90 (HSV-1 [6]; 10 mM n-docosanol): 40 fold | reduction of EC90 by n-docosanol (HSV-1 [6]; 15 mM n-docosanol): 21 fold | EC90 (HSV-1 [6]; 15 mM n-docosanol, 500 PFU/culture, three days, read-out: EC90 for inhibition of HSV-1 PFU production in the presence of n-docosanol): 0.9 µM | EC90 (HSV-1 [6]; Human alphaherpesvirus 1, Vero, 72 h, control cultures without n-docosanol, 500 PFU/culture, three days, read-out: EC90 for inhibition of HSV-1 PFU production, drug used alone): 19 µM | EC90 (HSV-1 [6]; Human alphaherpesvirus 1, Vero, read-out: ACV EC90 for inhibition of HSV-1 production, 30 mM n-docosanol): < 0.1 µM | EC90 (HSV-1 [6]; Human alphaherpesvirus 1, Vero, read-out: ACV EC90 for inhibition of HSV-1 production, medium only or medium plus PLURONIC F-68, 500 PFU per culture, 72 hours): 10 µM | EC50 ([7]; Medium Only): 3 µM | EC50 ([7]; with Pluronic F-68): 3 µM | EC50 ([7]; with n-Docosanol, 3.3 mM): 1 µM | EC50 ([7]; with n-Docosanol, 10 mM): 0.6 µM | EC50 ([7]; with n-Docosanol, 30 mM): 0.3 µM | EC90 ([7]; Medium Only): 10 µM | EC90 ([7]; with Pluronic F-68): 10 µM | EC90 ([7]; with n-Docosanol, 3.3 mM): 6 µM | EC90 ([7]; with n-Docosanol, 10 mM): 4 µM | EC90 ([7]; with n-Docosanol, 30 mM): 2 µM | reduction of ACV EC50's and EC90's (Cytomegalovirus (CMV); CMV, n-docosanol concentrations of 10-30 mM): 90% | EC50 (Cytomegalovirus (CMV); Medium Only): 30 µM | EC50 (Cytomegalovirus (CMV); with Pluronic F-68): 30 µM | EC50 (Cytomegalovirus (CMV); with n-Docosanol, 3.3 mM): 8 µM | EC50 (Cytomegalovirus (CMV); with n-Docosanol, 10 mM): 2 µM | EC50 (Cytomegalovirus (CMV); with n-Docosanol, 30 mM): 2 µM | EC90 (Cytomegalovirus (CMV); Medium Only): 250 µM | EC90 (Cytomegalovirus (CMV); with Pluronic F-68): 250 µM | EC90 (Cytomegalovirus (CMV); with n-Docosanol, 3.3 mM): 35 µM | EC90 (Cytomegalovirus (CMV); with n-Docosanol, 10 mM): 25 µM | EC90 (Cytomegalovirus (CMV); with n-Docosanol, 30 mM): 6 µM | sensitivity of vaccinia virus to ACV (in words) (vaccinia virus): insensitive | cellular toxicity, such as cytoplasmic vacuoles (Vero cells [8]): not observed | steady state acyclovir plasma concentration ([9]; acyclovir 5 mg/kg by 1-hour infusions every 8 hours): approximately 10 μg/ml | maximum average acyclovir plasma concentration ([9]; oral acyclovir 500 mg 5 times a day): approximately 0.7 μg/ml | enhancement of ACV activity (HSV-2 [1]; 3 mM n-docosanol): 25 fold | EC50 (HSV-2 [1]; 44 h, read-out: ACV 50% effective concentration (EC50), plaque formation, medium alone, 50 PFU HSV-2, scored 44 hours): 0.005 mM | EC50 (HSV-2 [1]; read-out: ACV EC50, plaque formation): 0.0002 mM

CCCCCCCC/C=C/CCCCCCCCCCCCO [brassidyl alcohol, trans-13-docosen-1-ol]
mean duration of the HSV-2 active infection, five women (HSV-2 [10]): 3 to 4 days | inhibition at 1000 µM (HSV-1 [11]): 27% | inhibition at 2000 µM (HSV-1 [11]): 35% | inhibition at 4000 µM (HSV-1 [11]): 44% | inhibition at 8000 µM (HSV-1 [11]): 48%
